From paper PMC9811466, “Structural Features Affecting the Interactions and Transportability of LAT1-Targeted Phenylalanine Drug Conjugates” (Molecular Pharmaceutics, 2022)
Values joined by “and” are separate entries in the source; they are usually repeats but may differ in a detail not shown here. Identical values can stand only once. “Also recorded” adds a separate entry of the source. Like-named read-outs stand apart in the source and are kept apart here.

Key:
hLAT1/4F2hc [1] = biological target: T1, hLAT1/4F2hc (Homo sapiens, UniProt Q01650); experiment: cis-inhibition of [14C]-L-leucine uptake in HEK-hLAT1 cells; format: cell-based; details: for [14C]-L-Leucine uptake inhibition % (50μM) / inhibition at 50 µM: 50 μM compound; for inhibition at 50 µM: read-out: [14C]-L-Leucine uptake inhibition % (50μM)
T1 construct: Invitrogen (host cells)
Experimental: (§1) In the following experiments, the MCF-7, HEK-hLAT1, and HEK-MOCK cells were cultured, seeded, and preincubated as described above. The HBSS was removed, and the ability of the compounds to inhibit the uptake of a known LAT1 substrate, [^14C]-L-leucine (PerkinElmer, Waltham, MA, USA), was studied by incubating the cells at RT for 10 min in uptake buffer pH 7.4 (250 μL) containing 0.76 μM (0.1 mCi/mL) of [^14C]-L-leucine and 0.025–1800 μM of the studied compound (or HBSS as blank). After incubation, the reaction was stopped with ice-cold HBSS, and the cells were washed two times with ice-cold HBSS. The cells were then lysed with 250 μL of 0.1 M sodium hydroxide, the lysate was mixed with 1.0 mL of Emulsifier safe cocktail (PerkinElmer, Waltham, MA, USA), and the radioactivity was measured with a liquid scintillation counter (MicroBeta^2 counter, PerkinElmer, Waltham, MA, USA). The inhibition of [^14C]-L-leucine in the presence of the studied compounds as compared to the control (HBSS) was calculated as percentages (%).
Using the stably hLAT1/4F2hc expressing cell line, the compounds’ inhibitory efficiencies and uptake kinetics were determined via the cis-inhibition assay and uptake studies, respectively. (Table 1) Cis-inhibition is based on the competition between the ligand and LAT1 substrate [^14C]-L-leucine that results in inhibition of substrate uptake. The competitive uptake with L-leucine is reported as the IC50 value of L-leucine uptake and extent as inhibition percentage (%) at a given concentration.

hLAT1/4F2hc [2] = biological target: T1, hLAT1/4F2hc; experiment: Concentration-dependent cellular uptake into HEK-hLAT1 cells (LC-MS/MS, Michaelis-Menten); format: cell-based; details: HEK-hLAT1 cells, compounds 1-12; for Vmax: 2-400 μM, 10 min
Experimental: (§2) The concentrations for the compounds were in the range of 2–400 μM. Otherwise, the experiment was carried out as described above and analyzed by liquid chromatography coupled with an electrospray ionization (ESI) triple quadrupole mass spectrometer (LC–MS–MS). […]
(§3) The concentration-dependent uptake studies were performed by adding 2–400 μM of the tested compound in 250 μL of prewarmed HBSS buffer on the cell layer. […] After incubation, the cells were washed and lysed as described above. The lysate was collected from wells into an Eppendorf tube and centrifuged at 4 °C, the supernatant was collected, and the intracellular concentrations of studied compounds were analyzed by liquid chromatography coupled with an ESI triple quadrupole mass spectrometer (LC–MS–MS). The results were calculated from the standard curve that was prepared by spiking known amounts of each compound to the cell lysate and normalized to protein concentration. The protein concentrations on each plate were determined as a mean of three samples by Bio-Rad Protein Assay, based on the Bradford dye-binding method, using BSA as a standard protein and measuring the absorbance (595 nm) by a multiplate reader (EnVision, PerkinElmer, Inc., Waltham, MA, USA). All statistical analyses (Michaelis–Menten kinetic parameters) were performed using GraphPad Prism v. 5.03 software (GraphPad Software, San Diego, CA., USA). […]
(§4) After protein precipitation, the samples were centrifuged for 10 min with 10,000 g at 4 °C. The supernatant was then collected and transferred to vials for LC–MS/MS analysis. For BCH and gabapentin, cells were also lysed with 0.1 M NaOH, an aliquot was taken from the lysates, and perchloric acid (PCA) was added to precipitate the proteins. The samples were then centrifuged, and the supernatant was diluted 1:10 with H20 with 0.1% formic acid including the IS and transferred to vials for analysis.
(§5) The samples were analyzed with LC–MS/MS coupled with an Agilent 1200 series Rapid Resolution LC System (Agilent Technologies, Waldbronn, Germany) and an Agilent 6410 Triple Quadrupole with electrospray ionization (ESI) (Agilent Technologies, Palo Alto, CA, USA). […] The aqueous mobile phase was 0.1% formic acid in water (A), while the organic mobile phase was 0.1% formic acid in acetonitrile (B). […] For compound 4: 0–4 min 10% → 90% B, 4–6 min 90% B, 6–6.1 min 90% → 10%, 6.1–9 min 10%. For compound 5: 0–1 min 20% → 95% B, 1–4 min 95%, 4–4.1 min 95% → 20%, 4.1–7 min 20%. For compounds 6 and 9: 0–2 min 10% → 95%, 2–6 min 95%, 6–6.1 min 95% → 10%, 6.1–9 min 10%. For compound 8: 0–1 min 20% → 80%, 1–5.2 min 80%, 5.2–5.3 min 80% → 20%, 5.3–9 min 20%.

MCF-7 cells = details: cited from earlier work
hLAT1/4F2hc [3] = biological target: T1, hLAT1/4F2hc; experiment: Concentration-dependent cellular uptake into HEK-hLAT1 cells (LC-MS/MS, Michaelis-Menten); format: cell-based; details: difference in uptake HEK-hLAT1 vs HEK-MOCK, with docking poses; 2-100 μM curves
HEK-MOCK cells = experiment: Concentration-dependent cellular uptake into HEK-MOCK cells; format: cell-based, human; details: for Km: compounds 1-12; for Vmax: compounds 1-12, 2-400 μM, 10 min
Experimental: as §2, §3, §4, §5

[4] = biological target: T2, LAT1 in MCF-7 human breast cancer cells (Homo sapiens, UniProt Q01650); details: MCF-7 cells; read-out: IC50 of [14C]-L-leucine uptake; cited from earlier work
T2 construct: wild-type MCF-7 human breast cancer cell line; endogenous in cells; host or cells: MCF-7 human breast cancer cells (wild type)

[5] = biological target: T2, LAT1 in MCF-7 human breast cancer cells; experiment: cis-inhibition of [14C]-L-leucine uptake in MCF-7 cells; format: cell-based; details: for inhibition at 50 µM: MCF7, MCF-7 cells
Experimental: Cells were cultured in DMEM (Gibco, ThermoFisher Scientific, Waltham, MA, USA) supplemented with L-glutamine (2 mM; ThermoFisher Scientific, Waltham, MA, USA), heat-inactivated fetal bovine serum (10%; Gibco, ThermoFisher Scientific, Waltham, MA, USA), penicillin (50 U/mL)-streptomycin (50 μg/mL) solution (ThermoFisher Scientific, Waltham, MA, USA), and hygromycin B solution (100 μg/mL) for transfected cells. HEK-hLAT1 and HEK-MOCK cells (passages 7–20) were seeded at a density of 5 × 10^5 cells/wells onto 24-well plates. The cells were used in the characterization, competition, and uptake studies 2 days after seeding. MCF-7 cells were seeded at a density of 1 × 10^5 and were used in the competition studies 1 day after seeding. The culture medium was removed, and the cells were washed with prewarmed Hanks’ balanced salt solution (HBSS; 125 mM NaCl, 4.8 mM KCl, 1.2 mM MgSO4, 1.2 mM KH2PO4, 1.3 mM CaCl2, 5.6 mM D-glucose, and 25 mM HEPES, pH 7.4). The cells were then incubated with HBSS at 37 °C for 10 min before the experiments.
as §1

[6] = Conversion of ester conjugate in 0.1 M NaOH (sample lysis); format: physicochemical
Experimental: For compound 9, the LLOQ was 0.05 nM with good linearity (R^2 > 0.983).[34] For the compounds 1, 7, and 12, the LLOQ was 12.5 nM, with a linear range of 12.5–2500 nM, and for 11, the LLOQ was 6.3 nM, over the range of 6.3–6250 nM.[28] For 10, the calibration curve was linear with a LLOQ of 1 ng/mL (accuracy ±15%), respectively.[26] For compounds 2–5, the LLOQ was 5.0 nM.[29] Methods were also selective, accurate (RSD < 15%), and precise (RSD < 15%) over the range of 5.0–1000 nM for 5 and for compounds 2–4 5.0–2000 nM. For compound 6, the LLOQ was 10 pmol/g.[33] Ketoprofen was linear with a range of 0.25–25 ng/mL, while compound 8 was completely converted to ketoprofen in 0.1 M NaOH within 30 min.

[7] = HEK-hLAT1 cells, compounds 1-12
[8] = HEK-hLAT1 cells, compounds 1-12, read-out: IC50 of [14C]-L-leucine uptake
[9] = HEK-hLAT1 cells, compounds 1-12, 50 µM

T1 sequence (Q01650 whole entry): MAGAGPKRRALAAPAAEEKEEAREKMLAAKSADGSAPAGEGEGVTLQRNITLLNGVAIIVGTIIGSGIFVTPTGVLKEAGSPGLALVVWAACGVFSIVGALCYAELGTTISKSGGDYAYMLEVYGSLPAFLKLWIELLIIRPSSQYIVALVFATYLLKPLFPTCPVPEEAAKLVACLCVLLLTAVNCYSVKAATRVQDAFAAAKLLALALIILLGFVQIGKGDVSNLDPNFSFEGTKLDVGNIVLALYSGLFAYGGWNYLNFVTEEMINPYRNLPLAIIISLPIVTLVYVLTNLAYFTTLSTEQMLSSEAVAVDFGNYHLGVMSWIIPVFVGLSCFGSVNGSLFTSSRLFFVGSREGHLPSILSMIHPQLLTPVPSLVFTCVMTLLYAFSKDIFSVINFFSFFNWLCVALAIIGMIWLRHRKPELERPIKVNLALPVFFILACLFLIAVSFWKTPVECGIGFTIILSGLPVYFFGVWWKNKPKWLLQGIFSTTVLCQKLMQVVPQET
T1 sequence (P08195 102-630 partner): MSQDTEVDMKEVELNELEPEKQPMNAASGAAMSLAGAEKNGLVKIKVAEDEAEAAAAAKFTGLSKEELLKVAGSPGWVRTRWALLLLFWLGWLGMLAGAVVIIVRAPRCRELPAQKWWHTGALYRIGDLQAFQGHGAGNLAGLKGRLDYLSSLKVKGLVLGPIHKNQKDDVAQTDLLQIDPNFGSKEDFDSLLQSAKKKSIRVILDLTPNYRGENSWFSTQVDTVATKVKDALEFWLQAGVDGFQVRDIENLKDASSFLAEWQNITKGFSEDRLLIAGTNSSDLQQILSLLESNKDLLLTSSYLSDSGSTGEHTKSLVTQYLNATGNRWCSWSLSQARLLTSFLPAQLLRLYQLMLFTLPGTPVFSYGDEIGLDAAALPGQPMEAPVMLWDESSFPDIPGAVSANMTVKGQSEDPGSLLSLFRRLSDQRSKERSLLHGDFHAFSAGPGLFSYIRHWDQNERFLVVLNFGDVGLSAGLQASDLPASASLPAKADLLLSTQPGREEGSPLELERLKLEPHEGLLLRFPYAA
T2 sequence (Q01650 whole entry): as the sequence (Q01650 whole entry) above
T2 sequence (P08195 102-630 partner): as the sequence (P08195 102-630 partner) above

| interaction class with LAT1 (interaction and transportability) (hLAT1/4F2hc [3]) | inhibition at 50 µM (hLAT1/4F2hc [1]; [7]) [%] | IC50 (hLAT1/4F2hc [1]; [8]) [µM] | Km (hLAT1/4F2hc [2]; read-out: Km) [µM] | inhibition at 50 µM ([5]; 50 μM compound) [%] | time to complete conversion to ketoprofen [6] [min] | IC50 ([5]; MCF-7 cells) [µM] | [14C]-L-Leucine uptake inhibition % (50μM) ([5]; MCF-7 cells, 50 μM compound, 50 µM) [%] | SMILES | IC50 (hLAT1/4F2hc [1]) [µM] | [14C]-L-Leucine uptake inhibition % (50μM) (hLAT1/4F2hc [1]; [7]) | Km (hLAT1/4F2hc [2]) [µM] | Vmax (hLAT1/4F2hc [2]) | Vmax (MCF-7 cells; MCF-7 cells, previous studies) [pmol/min/mg] | Km (HEK-MOCK cells) [µM] | Vmax (HEK-MOCK cells) | IC50 [4] [µM] | [14C]-L-Leucine uptake inhibition % (50μM) (hLAT1/4F2hc [1]; [9]) | Km (MCF-7 cells; MCF-7 cell line) [µM] | Vmax (MCF-7 cells; MCF-7 cell line) [pmol/min/mg] |
| --- | --- | --- | --- | --- | --- | --- | --- | --- | --- | --- | --- | --- | --- | --- | --- | --- | --- | --- | --- |
| medium interactions | 48 ± 1.8 | 11 | 19 ± 7.3 | 93 ± 0.5 | – | – | – | CC(C(=O)Nc1cccc(C[C@H](N)C(=O)O)c1)c1cccc(C(=O)c2ccccc2)c1 (stereo partly drawn) [Compound 5] | – | – | – | 63±7.5 pmol/min/mg of protein | – | 109 ± 69 | 63±24 pmol/min/mg of protein | 0.5 ± 0.05 | – | – | – |
| – | 24 ± 2.3 | > 100 | – | 83 ± 0.9 | ≤ 30 | 0.4 ± 0.08 | – | CC(C(=O)Oc1cccc(C[C@H](N)C(=O)O)c1)c1cccc(C(=O)c2ccccc2)c1 (stereo partly drawn) [Compound 8] | – | – | – | – | – | – | – | – | – | – | – |
| low | – | > 100 | – | 79.7 ± 7.87 | – | – | – | COc1cc(/C=C/C(=O)Nc2cccc(C[C@H](N)C(=O)O)c2)ccc1O [Compound 9] | – | – | – | – | – | 94 ± 45 | 149±41 pmol/min/mg of protein | 1.1 ± 0.08 | not able to inhibit; also recorded: no inhibition | – | – |
| low | 10 | > 100 | – | 40 | – | 137 ± 1.6 | 45±1.7 | CCCN(CCC)S(=O)(=O)c1ccc(C(=O)Nc2cccc(C[C@H](N)C(=O)O)c2)cc1 [Compound 10] | – | – | – | – | – | – | 248±616 pmol/min/mg of protein | – | 11±9.9% | 15.2 | 111 |

| SMILES | interaction class with LAT1 (interaction and transportability) (hLAT1/4F2hc [3]) | inhibition at 50 µM (hLAT1/4F2hc [1]; [7]) [%] | IC50 (hLAT1/4F2hc [1]; [8]) [µM] | Km (hLAT1/4F2hc [2]; read-out: Km) [µM] | inhibition at 50 µM ([5]; 50 μM compound) [%] | time to complete conversion to ketoprofen [6] [min] | IC50 ([5]; MCF-7 cells) [µM] | [14C]-L-Leucine uptake inhibition % (50μM) ([5]; MCF-7 cells, 50 μM compound, 50 µM) [%] | IC50 (hLAT1/4F2hc [1]) [µM] | [14C]-L-Leucine uptake inhibition % (50μM) (hLAT1/4F2hc [1]; [7]) | Km (hLAT1/4F2hc [2]) [µM] | Vmax (hLAT1/4F2hc [2]) | Vmax (MCF-7 cells; MCF-7 cells, previous studies) [pmol/min/mg] | Km (HEK-MOCK cells) [µM] | Vmax (HEK-MOCK cells) | IC50 [4] [µM] | [14C]-L-Leucine uptake inhibition % (50μM) (hLAT1/4F2hc [1]; [9]) | Km (MCF-7 cells; MCF-7 cell line) [µM] | Vmax (MCF-7 cells; MCF-7 cell line) [pmol/min/mg] |
| --- | --- | --- | --- | --- | --- | --- | --- | --- | --- | --- | --- | --- | --- | --- | --- | --- | --- | --- | --- |
| N[C@@H](Cc1ccc(OC(=O)NCCc2ccc(O)c(O)c2)cc1)C(=O)O [Compound 2] | highest interactions | – | – | – | – | – | – | – | > 100 | no inhibition | 103 ± 41 | 1521 pmol/min/mg of protein and 1521±364 pmol/min/mg of protein | < 3 | 8.7 ± 12 | 19 pmol/min/mg of protein and 19±12 pmol/min/mg of protein | – | – | – | – |
